Experimental data published in patent US11692004B2, “Substituted pyrazole compound, preparation method therefor, pharmaceutical composition and medical use thereof” (JIANGSU VANGUARD PHARMACEUTICAL CO., LTD., priority 2018, dated 2023).
≈ marks a conversion by molar mass, not a printed value.

Legend:
[1] = test system: B6SJL-Tg (SOD1*G93A) mice; test: In vivo efficacy test of ALS model; design: key to Rotarod Time / PaGE: “+” indicates a significant difference compared with the solvent group, p < 0.05; conditions: for Plasma SOD concentration on day 28th(U/mL): ELISA; for PaGE / Rotarod Time: versus solvent group; for Fall latency in rota-rod test and PaGE test: 28-day drug intervention
Description: B6SJL-Tg (SOD1*G93A) mice were intraperitoneally administered single-doses once a day for 4 consecutive weeks. The weight of the mice was determined before and after the administration every week. The motor function of the mice was determined by rota-rod and PaGE tests with the time points before and after 4-week administration. The mice plasma was collected and detected for SOD levels through ELISA. The Index Evaluation described below was used to evaluate the efficacy of the compounds of the examples in ALS model and to what extent the compounds of the examples improve the survival period and motor activity.
The animals were delivered to the SPF animal room and raised for more than one week. Five days before the test, the mice were accustomed to a round of tests per day. The mice were randomly divided into groups according to their body weights, 8 mice for each group. Among them, the solvent group was given with the same volume of solvent (physiological saline) every day.
The mice were administered with a volume of 10 ml/kg.
i.p once a day for 4 weeks.
Index evaluation time started from the beginning of the experiment to the death of the animals.
1) ALS onset time: For 2 consecutive observation days, the mice appeared limb, tremor and/or limb weakness at tail suspension were determined as the ALS onset. The determination of limb weakness: the mice were placed on the rota-rod device with a diameter of 3.5 cm. The speed is set to 15 rpm to record the longest fall latency divided by 420 s. The mice of less 420 s were determined as limb weakness.
2) Rota-rod Test: The mice were placed on the rota-rod device with a diameter of 3.5 cm. The speed is set to 12 rpm to record the longest fall latency divided by 180 s. The latency of more than 180 s was recorded as 180 s, and actual time was recorded when less than 180 s.
3) Paw Grip Endurance (PaGE) Test: The mice were placed on the traditional wire grid. The grid was gently shaken to cause the mice to tighten its grip on the wires then inverted, and time recording commenced. The time was recorded until the mouse lost its grip in hind limbs divided by 90 s. The time more than 90 s was recorded as 90 s, while the time less than 90 s was recorded by its actual time. The test was completed in triplicate with the highest score used for analysis.
5) Plasma SOD concentration: The blood was collected and mixed with EP tube containing heparin before and after administration at the 4th week, and then centrifuged at 1000 g for 10 min. The plasma was collected and stored in aliquots at −70° C. ELISA kit was used to detect plasma SOD levels.

Cytotoxic test (MTT) = format: cell-based; conditions: rat, PC12 cells, 48 h incubation
Description: (§1) After resuscitating, the PC12 cells were cultured in RPMI-1640 containing 10% horse serum and 5% Fetus Bovine Serum (FBS) under 5% CO2 at 37° C. for two weeks. The medium was changed every other day. The compounds were diluted into solutions of 12.5, 25, 50, 100, 200, 300 μM with culture medium (except examples 33-45 with additional solutions of 400 μM and 500 μM). The PC12 cells were seeded into a 96-well plate at a density of 1.2×10^4 cells/well and cultured in a 37° C., 5% CO2 incubator for 24 hours. Remove the medium, the cells were added with the compound solutions of different concentrations as test solutions for another 48 h incubation in a 37° C., 5% CO2 incubator.
(§2) After the incubation, the wells were added with 20 μL 5 mg/mL MTT and incubated for 4 hours at 37° C. Carefully removed the medium and added 150 μL DMSO. The plates were placed on an enzyme-labeled instrument and vibrated for 5 min. The absorbance Atest solution were obtained at 490 nm with the Ablank of the well without cells and the Acontrol of the well with untreated cells. The survival rates of the cells in every well were calculated by the formula as Survival rate (%)=(Atest solution−Ablank)/(Acontrol−Ablank)*100%

PC12 cells = test: In-vitro neuroprotection-I (H2O2 injury, MTT); format: cell-based; conditions: Rattus norvegicus, PC-12, 48 h compound, then 200 μM H2O2 24 h, MTT survival rate
Description: All samples were made into 60 mM stock solution by DMSO, which were 200 times diluted to 300 μM by medium. And the final concentration was further diluted into different concentrations by media.
Control: Normal cell-plating and same cell medium as other group. 24 hours later, the medium was discarded. Incubate the cell in new media for 24 hours. No compound and hydrogen peroxide treatment. Other steps were the same as the sample test as mentioned below did.
Blank: no cell plating, cell medium, and other steps were the same as the sample test as mentioned below did.
as §1, with “(except that” for “(except”, “The PC 12” for “The PC12”, “of 8×10^3” for “of 1.2×10^4”, “hours. Removed” for “hours. Remove”, “incubator. After the incubation, apart from the blank and control groups, the wells (including 0 μM drug group) were added to the medium-prepared 200 μM H2O2, and continued for another 24 h incubation in a 37° C., 5% CO2 incubator.” for “incubator.”
as §2, with “rate” for “rates”, “well” for “well were calculated”, “survival” for “as Survival”, “solution−Ablank)/(Acontrol−Ablank)*100%.” for “solution−Ablank)/(Acontrol−Ablank)*100%”

[2] = test system: MCAO model (middle cerebral artery ischemia-reperfusion); test: In vivo drug efficacy test of MCAO model; conditions: SD rats, MCAO 2 h then reperfusion, tail vein infusion 30 min; for Cerebral infarction area (%): TTC staining, infarct area to whole brain area; for Improvements of nerve function (%): score at 24 h versus model control
[3] = Solubility test in distilled water; format: physicochemical; conditions: thermodynamic from solid, 25° C.
Description: Test method: the dry compound was slowly dissolved into about 0.5 ml distilled water in a 5 ml EP tube until saturation (turbid after ultra-sonic vibration at 25° C.). The solution was filtered and moved to another clean 5 ml EP tube (pre-weighed) and the tube was weighed again to calculate the solution weight. The solution was freeze dried. The remaining solute was weighed to calculate the solvent weight, and then the compound solubility in water was determined.

[4] = Stability studies (high humidity, illumination, high temperature, seven days); format: physicochemical; conditions: 25° C. ± 2° C., 60% ± 5 RH, 4500 ± 500 LX
Description: The stability of samples from some embodiments were examined under high humidity (25° C.±2° C., 90%±5RH), illumination (25° C.±2° C., 60%±5RH, 4500±500LX), high temperature (60° C.±2° C., 60%±5RH), which were stored in the stability incubator for seven days, for the changes of related substances and contents, as shown in Table 2.

[5] = 86 μmol/kg i.p. once a day for 4 weeks

SMILES | Onset time(d) [1, 5] | Survival time [1, 5] | Plasma SOD concentration on day 28th(U/mL) [1, 5] | PaGE [1, 5] | Rotarod Time [1, 5] | Fall latency in rota-rod test and PaGE test [1] | IC50 at 48 h (Cytotoxic test (MTT)) | EC50 (PC12 cells) | Cerebral infarction area (%) [2] | Improvements of nerve function (%) [2] | solubility [3] | Onset time [1, 5] | Content Drop, Illumination [4] | Stability, Illumination: changes of related substances and contents [4]
Cc1cc(OCOC(=O)c2cc(N(C)C)ccc2O)n(-c2ccccc2)n1 [Compound 24, (3-methyl-1-phenylpyrazole-5-)oxymethyl-(2-hydroxy-5-N,N-dimethyl)benzoate] | 118.29 ± 6.32* d | 147.71 ± 8.94 days | 150.55 ± 11.88* U/mL | + | + | better than the marketed drug edaravone | 272 µM | 44.7 µM | – | – | – | – | – | –
Cc1cc(OC2O[C@H](CO)[C@@H](O)[C@H](O)[C@H]2O)n(-c2ccccc2)n1 (stereo partly drawn) [Compound 33, 1-phenyl-3-methyl-5-O-D-glucoside-pyrazole] | 118.25 ± 5.87* d | 149.88 ± 8.37 days | 155.18 ± 15.37* U/mL | + | + | better than the marketed drug edaravone | > 300 µM | 112 µM | 14.0% | 24.0% | 10100 µg/mL (≈ 30 mM) | – | – | –
Cc1cc(OC2O[C@H](CO)[C@@H](O)[C@H](O)[C@@H]2O)n(-c2ccccc2)n1 (stereo partly drawn) [Compound 34, 1-phenyl-3-methyl-5-O-D-mannoside-pyrazole] | – | – | – | – | – | – | > 300 µM | 120 µM | 14.5% | 21.1% | 12300 µg/mL (≈ 36.6 mM) | – | – | –
Cc1cc(OC2O[C@H](CO)[C@H](O)[C@H](O)[C@H]2O)n(-c2ccccc2)n1 (stereo partly drawn) [Compound 35, 1-phenyl-3-methyl-5-O-D-galactoside-pyrazole] | – | – | – | – | – | – | > 300 µM | 87.9 µM | 15.8% | 22.2% | 18000 µg/mL (≈ 53.5 mM) | – | – | –
Cc1cc(OC2C[C@@H](O)[C@H](O)[C@@H](CO)O2)n(-c2ccccc2)n1 (stereo partly drawn) [Compound 36, 1-phenyl-3-methyl-5-O-D-(2-deoxy)glucoside-pyrazole] | – | – | – | – | – | – | > 300 µM | 79.6 µM | 14.1% | 24.1% | 4200 µg/mL (≈ 13.1 mM) | – | – | –
CC(=O)N[C@H]1C(Oc2cc(C)nn2-c2ccccc2)O[C@H](CO)[C@@H](O)[C@@H]1O (stereo partly shown) [Compound 37] | – | – | – | – | – | – | > 500 µM | 90 µM | 17.6% | 17.5% | 6500 µg/mL (≈ 17.2 mM) | – | – | –
Cc1cc(OC2OC[C@@H](O)[C@H](O)[C@H]2O)n(-c2ccccc2)n1 (stereo partly drawn) [Compound 38, 1-phenyl-3-methyl-5-O-D-xylopyranoside-pyrazole] | – | – | – | – | – | – | > 500 µM | – | 17.8% | 17.0% | 3800 µg/mL (≈ 12.4 mM) | – | – | –
Cc1cc(OC2O[C@H](CO)[C@@H](O)[C@H]2O)n(-c2ccccc2)n1 (stereo partly drawn) [Compound 39, 1-phenyl-3-methyl-5-O-D-riboside-pyrazole] | – | – | – | – | – | – | > 500 µM | 55 µM | 18.0% | 16.9% | 5100 µg/mL (≈ 16.6 mM) | – | – | –
Cc1cc(OC2C[C@H](O)[C@@H](CO)O2)n(-c2ccccc2)n1 (stereo partly drawn) [Compound 40, 1-phenyl-3-methyl-5-O-D-(2-deoxy)riboside-pyrazole] | – | – | – | – | – | – | > 500 µM | 54.7 µM | 18.5% | 16.8% | 3000 µg/mL (≈ 10.3 mM) | – | – | –
CC1=NN(c2ccccc2)C(=O)C1 [Edaravone, edaravone, reference compound] | – | 147.00 ± 8.94 days | 153.88 ± 9.91* U/mL | + | + | – | – | 171 µM | 20.1% | 15.7% | < 1000 µg/mL | 116.14 ± 7.82 days | 4% | dropped significantly
